Results as given in patent US20260337189A1, “Cryptolepine Salt Derivative, Preparation Method, and Use Thereof” (ZHEJIANG XINNONG CHEMICAL CO., LTD., priority 2023, published 2026).

Tested on: rice sheath blight
Assay: Test of resistance to rice sheath blight (bactericidal activity test)
Format: in vivo
Conditions: for Resistance to rice sheath blight: 400 mg/L, rice seedlings, sprayed 24 h before inoculation, 6 days after inoculation, visual inspection; for bactericidal activity against rice sheath blight: live pot test, Table 5, 400 mg/L
Description: Bactericidal activity test, the determination procedure is as follows:
Test of resistance to rice sheath blight: Select uniformly growing rice seedlings and spray them on the leaves at the set concentration, set a water spraying group as blank control, every treatment was repeated twice. After 24 h, the rice seedlings were inoculated with rice sheath blight strains and placed at room temperature (25±4° C.) for normal management after inoculation. The prevention and control effect was investigated by visual inspection 6 days after inoculation.

Row | SMILES | Resistance to rice sheath blight [%] | bactericidal activity against rice sheath blight
1 | C[n+]1c2ccccc2cc2[nH]c3ccc(Br)cc3c21 [Reference Example 1, 5-methyl-7-bromo 5H-indolo[3,2-b]quinoline, reference compound] | 0 | –
2 | Cc1ccc(S(=O)(=O)n2c3ccc(C)cc3c3c2cc2ccccc2[n+]3C)cc1.[Cl-] [Example 2] | 40 ± 0 | –
3 | Cc1ccc(S(=O)(=O)n2c3ccccc3c3c2cc2ccc(Cl)cc2[n+]3C)cc1 [Example 17] | 40 ± 0 | –
4 | Cc1ccc(S(=O)(=O)n2c3ccccc3c3c2cc2cc(Cl)ccc2[n+]3C)cc1.[Cl-] [Example 12] | 40 ± 0 | –
5 | CNCCCNc1c2ccccc2[n+](C)c2c1[nH]c1ccccc12.[I-] [Example 38] | 30 ± 0 | –
6 | CN1CCC(CNc2c3ccccc3[n+](C)c3c2[nH]c2ccccc23)CC1.[I-] [Example 45] | 30 ± 0 | –
7 | Cc1ccc(S(=O)(=O)n2c3ccccc3c3c2cc2ccccc2[n+]3C)cc1.[Cl-] [Example 1] | 95 ± 5 | more than 95%
8 | COC(=O)c1ccc2c(c1)cc1c(c3ccccc3n1S(=O)(=O)c1ccc(C)cc1)[n+]2C.[Cl-] [Example 15] | 40 ± 0 | –
9 | C[n+]1c2ccccc2c(N2CCN(CCN)CC2)c2[nH]c3ccc(Cl)cc3c21.[I-] [Reference Example 2, 11-(4′-(2-aminoethyl)-piperazinyl) substituted cryptolepine iodide salt, reference compound] | 0 | –
10 | COc1ccc2c(c1)cc1c(c3ccccc3n1S(=O)(=O)c1ccc(C)cc1)[n+]2C.[Cl-] [Example 10] | 30 ± 0 | –
11 | CCCNc1c2ccccc2[n+](C)c2c1[nH]c1ccccc12 [Example 23] | 30 ± 0 | –
12 | Cc1ccc(S(=O)(=O)n2c3ccccc3c3c2cc2cc(C(F)(F)F)ccc2[n+]3C)cc1.[Cl-] [Example 14] | 60 ± 0 | more than 50%
13 | Cc1nc(C(F)(F)F)c(C(=O)Nc2c(Br)cc(OC(F)(F)F)cc2Br)s1 [Thifluzamide, thifluzamide, reference compound] | 100 | –
14 | C[n+]1c2ccccc2c(NCC2CCCCC2)c2[nH]c3ccccc3c21 [Example 30] | 35 ± 5 | –
15 | C[n+]1c2ccccc2c(NCCN)c2[nH]c3ccccc3c21.[I-] [Example 32] | 30 ± 0 | –
16 | C[n+]1c2ccccc2cc2c1c1ccccc1n2S(=O)(=O)c1ccccc1 [Example 22] | 45 ± 5 | more than 50%
17 | Cc1ccc(S(=O)(=O)n2c3ccccc3c3c2cc2cc(C)ccc2[n+]3C)cc1.[Cl-] [Example 9] | 70 ± 0 | more than 50%
18 | Cc1ccc(S(=O)(=O)n2c3ccccc3c3c2cc2cc(F)ccc2[n+]3C)cc1.[Cl-] [Example 11] | 40 ± 0 | –
19 | C[n+]1c2ccccc2c(NCC2CCCNC2)c2[nH]c3ccccc3c21.[I-] (stereo not drawn) [Example 43] | 30 ± 0 | –
20 | C[n+]1c2ccccc2c(NCC(C)(C)N)c2[nH]c3ccccc3c21.[I-] [Example 36] | 35 ± 5 | –
21 | Cc1ccc(S(=O)(=O)n2c3ccc(C#N)cc3c3c2cc2ccccc2[n+]3C)cc1.[Cl-] [Example 8] | 30 ± 0 | –
22 | COc1ccc2c(c1)c1c(cc3ccccc3[n+]1C)n2S(=O)(=O)c1ccc(C)cc1.[Cl-] [Example 3] | 35 ± 5 | –
23 | CN1CCC(Nc2c3ccccc3[n+](C)c3c2[nH]c2ccccc23)CC1.[I-] [Example 44] | 55 ± 5 | more than 50%
24 | Cc1ccc(S(=O)(=O)n2c3ccccc3c3c2cc2ccc(C)cc2[n+]3C)cc1 [Example 16] | 95 ± 5 | more than 95%
